Activity calls are given as the source filed them. The rule behind the calls is not given here.
Tests used:
[1] = Biodistribution in liver of female BALB/c mouse bearing mouse 4T1 cells at 1.8 mg/kg, iv measured up to 12 hrs by fluorescence imaging analysis; format: ADME, organism-based; conditions: in vivo
4T1 [2] = assay: Antitumor activity against mouse 4T1 cells implanted in female BALB/c mouse assessed as tumor growth inhibition at 1.8 mg/kg, iv pretreated for 4 hrs followed by exposure to laser irradiation of 808 nm for 5 mins on every 2 days treated for 15 days; format: functional, organism-based; conditions: time 15.0 day
4T1 [3] = assay: Antitumor activity against mouse 4T1 cells implanted in female BALB/c mouse assessed as cellular damage at 1.8 mg/kg, iv treated on every 2 days treated for 15 days by H and E staining based analysis; format: functional, organism-based; conditions: time 15.0 day
[4] = Toxicity in ICR mouse bearing mouse H22 cells assessed as damage in lung at 1.8 mg/kg, iv pretreated for 4 hrs followed by exposure to laser irradiation of 808 nm for 5 mins on every 2 days treated for 15 days by H and E staining based analysis; format: organism-based; conditions: in vivo, 360 h, time 15 day
[5] = Toxicity in ICR mouse bearing mouse H22 cells assessed as damage in kidney at 1.8 mg/kg, iv pretreated for 4 hrs followed by exposure to laser irradiation of 808 nm for 5 mins on every 2 days treated for 15 days by H and E staining based analysis; format: organism-based; conditions: in vivo, 360 h, time 15 day
4T1 [6] = assay: Photothermal cytotoxicity against mouse 4T1 cells assessed as survival rate at 3.12 uM preincubated for 4 hrs followed by exposure to laser irradiation of 808 nm for 2 mins and subsequent incubation for 20 hrs by MTT assay relative to control; format: functional; conditions: 4T1, light or radiation study, 24.03 h, time 1442 min, read-out: Survival
4T1 [7] = assay: Cytotoxicity against mouse 4T1 cells assessed as cell viability under dark condition up to 25 uM incubated for 24 hrs by MTT assay relative to control; format: functional
[8] = Drug accumulation in tumor of female BALB/c mouse bearing mouse 4T1 cells at 2.5 mg/kg, iv measured up to 12 hrs by fluorescence imaging analysis; format: ADME, organism-based, Neoplasm; conditions: in vivo
[9] = Drug accumulation in tumor of female BALB/c mouse bearing mouse 4T1 cells assessed as increase in fluorescence intensity at 2.5 mg/kg, iv measured after 4 hrs by fluorescence imaging analysis; format: ADME, organism-based, Neoplasm; conditions: in vivo
4T1 [10] = assay: Antitumor activity against mouse 4T1 cells implanted in female BALB/c mouse assessed as nuclei rupture at 2.5 mg/kg, iv pretreated for 4 hrs followed by exposure to laser irradiation of 808 nm for 5 mins on every 2 days treated for 15 days by H and E staining based analysis; format: functional, organism-based; conditions: time 15.0 day
4T1 [11] = assay: Antitumor activity against mouse 4T1 cells implanted in female BALB/c mouse assessed as cellular damage at 2.5 mg/kg, iv treated on every 2 days treated for 15 days by H and E staining based analysis; format: functional, organism-based; conditions: time 15.0 day
H22 = assay: Antitumor activity against mouse H22 cells implanted in female ICR mouse assessed as tumor growth inhibition at 2.5 mg/kg, iv pretreated for 4 hrs followed by exposure to laser irradiation of 808 nm for 5 mins on every 2 days treated for 15 days; format: functional, organism-based; conditions: time 15.0 day
[12] = Toxicity in female BALB/c mouse bearing mouse 4T1 cells assessed as damage in heart at 2.5 mg/kg, iv pretreated for 4 hrs followed by exposure to laser irradiation of 808 nm for 5 mins on every 2 days treated for 15 days by H and E staining based analysis; format: organism-based; conditions: in vivo, 360 h, time 15 day
[13] = Toxicity in female BALB/c mouse bearing mouse 4T1 cells assessed as damage in spleen at 2.5 mg/kg, iv pretreated for 4 hrs followed by exposure to laser irradiation of 808 nm for 5 mins on every 2 days treated for 15 days by H and E staining based analysis; format: organism-based; conditions: in vivo, 360 h, time 15 day
[14] = Toxicity in ICR mouse bearing mouse H22 cells assessed as damage in heart at 2.5 mg/kg, iv pretreated for 4 hrs followed by exposure to laser irradiation of 808 nm for 5 mins on every 2 days treated for 15 days by H and E staining based analysis; format: organism-based; conditions: in vivo, 360 h, time 15 day

COC(=O)C(=C\C=C\C1=[N+](C)c2ccccc2C1(C)C)/C=C/C=C1/N(C)c2ccccc2C1(C)C.[I-]
Drug uptake [1]: Active
inhibition (4T1 [2]): Active; Minimal Effect Was Observed
Activity (4T1 [3]): Not active; Minor Cell Damage Was Observed
Activity [4]: Non-toxic
Activity [5]: Non-toxic

COCCOCCOCCN1/C(=C/C=C/C(=C/C=C/C2=[N+](CCOCCOCCOC)c3ccccc3C2(C)C)C(=O)OC)C(C)(C)c2ccccc21.[I-]
viability at 3.12 µM (4T1 [6]): 36%
Activity (4T1 [7]): 55%
Drug uptake [8]: Active
Drug uptake [9]: Active
Activity (4T1 [10]): Active
Activity (4T1 [11]): Not active; Minor Cell Damage Was Observed
inhibition (H22): Active
Activity [12]: Non-toxic
Activity [13]: Non-toxic
Activity [14]: Non-toxic
